The values that follow come from patent US9453837B2, “Grafted dinuclear metal complexes, and use thereof as cellular microparticle sensors” (CENTRE NATIONAL DE LA RECHERCHE SCIENTIFIQUE (CNRS), priority 2011, dated 2016).

The subject of this test is microparticles derived from the activation of the cell culture of HMEC1 human microvascular endothelial cells by TNF-α. The test is described as follows: Colorimetric assay of cellular microparticles by immobilisation of the complex on a microtiter plate (sensitivity study). The class given is binding. The settings on record: complex immobilised on polyglutaraldehyde-activated PVC plate; anti-CD105 antibody, peroxidase secondary antibody, ABTS; FIG. 1. How it is done:
a) Reagents: • Glutaraldehyde 25% • Ethanolamine 16.5 M • Bicarbonate buffer (Na Bic), at pH 9.5, 1 M, to be made only by titration of a solution of NaH2CO3 (pH 8.3) with a solution of Na2CO3 at pH 11, 6. • HEPES buffer, 10 mM pH 7.4; 0.15 M NaCl • (hBPMP/Zinc)-C6H2, 150 μM
b) Protocols: • Polymerisation of glutaraldehyde: • 50 ml of a solution of 2.5% glutaraldehyde is prepared in 0.1 M Na Bic, then the mixture is placed in a sealed vial at 37° C. for 2 hours. • Adsorption of polyglutaraldehyde on the surface of polyvinyl chloride: • A microtiter plate with 96 wells is used. • 100 μL of 2.5% glutaraldehyde is deposited in each well and left for 2 hours at 22° C. The polyglutaraldehyde is removed and the surface is rinsed 3 times with water. • Immobilisation of the complex [(Zn2)(BPMP-C6H2)(μ-OH)].(ClO4)2 • The complex in 0.1 M HEPES, pH 8.2 is immobilised on the surface of the polyvinyl chloride plate for 24 hours at +22° C.: • The free aldehyde groups are saturated with 0.3 M ethanolamine by incubating the surface with this solution for 2 hours at 22° C., then the ethanolamine is eliminated by washing with water and then washing 3 times in 10 mM HEPES at pH 7.4, 0.15 M NaCl. […]
The reading is performed by means of a spectrophotometer. […]

As for “[μ-[6-amino-N-(3,5-bis((bis(2-pyridylmethyl)amino)methyl)-4-hydroxybenzyl)hexanamide]]-μ-hydroxo, dizinc, diperchlorate [Example 4]”, the “signal (initial velocity Vi of peroxidase substrate degradation) based on the quantity of microparticles” value is “specific dose-response”.
